Source: paper PMC9838390, “Discovery and biosynthesis of karnamicins as angiotensin converting enzyme inhibitors” (Nature Communications, 2023)
Values joined by “and” are separate entries in the source; they are usually repeats but may differ in a detail not shown here. Identical values can stand only once.

Columns and labels:
KnmB1 [1] = experiment: Hydrogen peroxide formation assay of KnmB1 and variants; format: biochemical, L. rhizosphaerae NEAU-A2; conditions: 30 °C, average of 3
Procedure: Hydrogen peroxide formation assay and NADPH oxidation
The hydrogen peroxide formed from KnmB1, KnmB2 and their variants were measured using the Hydrogen Peroxide Assay Kit (Beyotime Industrial Co. Ltd, Shanghai, China)4-5. 5–100 µL of enzyme reaction mixture was added to 100 µL of working reagent (S0038-1). The mixture was incubated for 30 min at 25 °C, at which time the absorbance at 560 nm was measured by NanoDrop 2000c (Fisher Scientific). […]
(§1) Spectral data for new compounds […]
Supplementary Figure 131. H2O2 generation and NADPH oxidation for KnmB2, KnmB1 and their variants. (a) Hydrogen peroxide formation of KnmB2 and variants. […]
(b) Hydrogen peroxide formation of KnmB1 and variants. Reaction conditions: 100 µL system containing 50 mM Tris-HCl buffer (pH 7.5), 1 mM NADPH, 16 μM KnmB2, 17 μM KnmB1 or variants, 0.1 mM compound 24,1 mM SAM, and 2 […]
(1 picture or pasted object on this page, not shown here) […]
μM KnmF at 30 °C for 3h. (c) Hydrogen peroxide formation of KnmB1 and variants.
Reaction conditions: 100µL system containing 50 mM Tris-HCl buffer (pH 7.5), 0.3 mM NADPH, and 6 μM KnmB1 or variants, or 0.1 mM 24 at 30 °C for 30 min. […]
(§2) 2 μM KnmB2 or variants, or 0.1 mM substrate 24/32. […]
(§3) Source data are provided as a Source Data file. […]

KnmB1 [2] = experiment: NADPH oxidation of KnmB1 and variants (340 nm); format: biochemical, L. rhizosphaerae NEAU-A2; conditions: KnmB1 + compound
Procedure: Hydrogen peroxide formation assay and NADPH oxidation […]
NADPH detection was carried out in the cuvette by NanoDrop 2000c (Fisher Scientific). NADPH signal at 340 nm was monitored in time using 6220 M–1 cm–1 as […]
as §1
Reaction conditions: 50 mM Tris-HCl buffer (pH 7.5), 0.15 mM NADPH, and 2 μM KnmB1 or KnmB2. (e) NADPH oxidation of KnmB1 and variants. (f) NADPH oxidation of KnmB1 in the presence 24/32/36. (g) NADPH oxidation of KnmB1 and variants in the presence 24. Reaction conditions (e-g) for KnmB1 and their variants: 50 mM Tris-HCl buffer (pH 7.5), 0.15 mM NADPH, and 6 μM KnmB1 or variants, or 0.1 mM substrate 24/32/36. […]
as §2, §3

COc1cc(-c2csc(CCCC(C)=O)n2)nc(C(N)=O)c1O [Compound 36]
hydrogen peroxide formation of KnmB1 (absorbance UV λ=560 nm), average value (KnmB1 [1]; Fig. S131b, 1 mM NADPH, 17 μM KnmB1, 0.1 mM compound, 3 h): 0.0940
hydrogen peroxide formation of KnmB1 (absorbance UV λ=560 nm), average value (KnmB1 [1]; Fig. S131c, 0.3 mM NADPH, 6 μM KnmB1, 0.1 mM compound, 30 min): 0.0678
NADPH oxidation of KnmB1 in the presence of compound (replicates 1, 2, 3) (KnmB1 [2]; Time 0): 0.0000 µM
NADPH oxidation of KnmB1 in the presence of compound, average value (KnmB1 [2]; Time 0): 0.0000 µM
NADPH oxidation of KnmB1 in the presence of compound (replicates 1, 2, 3) (KnmB1 [2]; Time 1): 2.6688 µM and 1.0450 µM and 0.7235 µM
NADPH oxidation of KnmB1 in the presence of compound, average value (KnmB1 [2]; Time 1): 1.4791 µM
NADPH oxidation of KnmB1 in the presence of compound (replicates 1, 2, 3) (KnmB1 [2]; Time 2): 3.7942 µM and 2.2669 µM and 1.4470 µM
NADPH oxidation of KnmB1 in the presence of compound, average value (KnmB1 [2]; Time 2): 2.5027 µM
NADPH oxidation of KnmB1 in the presence of compound (replicates 1, 2, 3) (KnmB1 [2]; Time 3): 3.7460 µM and 2.5241 µM and 4.3730 µM
NADPH oxidation of KnmB1 in the presence of compound, average value (KnmB1 [2]; Time 3): 3.5477 µM
NADPH oxidation of KnmB1 in the presence of compound (replicates 1, 2, 3) (KnmB1 [2]; Time 4): 4.9196 µM and 2.5241 µM and 5.4662 µM
NADPH oxidation of KnmB1 in the presence of compound, average value (KnmB1 [2]; Time 4): 4.3033 µM
NADPH oxidation of KnmB1 in the presence of compound (replicates 1, 2, 3) (KnmB1 [2]; Time 5): 4.7428 µM and 3.0064 µM and 5.6752 µM
NADPH oxidation of KnmB1 in the presence of compound, average value (KnmB1 [2]; Time 5): 4.4748 µM
NADPH oxidation of KnmB1 in the presence of compound (replicates 1, 2, 3) (KnmB1 [2]; Time 8): 5.8360 µM and 3.0064 µM and 8.0225 µM
NADPH oxidation of KnmB1 in the presence of compound, average value (KnmB1 [2]; Time 8): 5.6217 µM
NADPH oxidation of KnmB1 in the presence of compound (replicates 1, 2, 3) (KnmB1 [2]; Time 10): 7.2669 µM and 6.4791 µM and 10.8521 µM
NADPH oxidation of KnmB1 in the presence of compound, average value (KnmB1 [2]; Time 10): 8.1994 µM
NADPH oxidation of KnmB1 in the presence of compound (replicates 1, 2, 3) (KnmB1 [2]; Time 15): 7.5080 µM and 6.4791 µM and 13.8264 µM
NADPH oxidation of KnmB1 in the presence of compound, average value (KnmB1 [2]; Time 15): 9.2712 µM
NADPH oxidation of KnmB1 in the presence of compound (replicates 1, 2, 3) (KnmB1 [2]; Time 20): 10.4502 µM and 12.1865 µM and 17.0257 µM
NADPH oxidation of KnmB1 in the presence of compound, average value (KnmB1 [2]; Time 20): 13.2208 µM
NADPH oxidation of KnmB1 in the presence of compound (replicates 1, 2, 3) (KnmB1 [2]; Time 30): 12.4116 µM and 12.1865 µM and 21.2701 µM
NADPH oxidation of KnmB1 in the presence of compound, average value (KnmB1 [2]; Time 30): 15.2894 µM
NADPH oxidation of KnmB1 in the presence of compound (replicates 1, 2, 3) (KnmB1 [2]; Time 40): 13.9068 µM and 22.9261 µM and 27.0579 µM
NADPH oxidation of KnmB1 in the presence of compound, average value (KnmB1 [2]; Time 40): 21.2969 µM
NADPH oxidation of KnmB1 in the presence of compound (replicates 1, 2, 3) (KnmB1 [2]; Time 60): 18.0547 µM and 22.9261 µM and 35.3698 µM
NADPH oxidation of KnmB1 in the presence of compound, average value (KnmB1 [2]; Time 60): 25.4502 µM
